Earlier results, collected in EP4684794A1, “TECHNICAL FORMULATION FOR ACTIVE ABSORPTION OF AMINO ACIDS BY HUMAN REPRODUCTIVE SYSTEM” (Xu, Haohan, priority 2023, dated 2024).

Experiments:
[1] = tested on: MC3T3-E1 osteoblasts; settings: platelet-derived growth factor-BB, SAPK/JNK pathway
[2] = tested on: bone marrow macrophages; settings: blocking the NF- κ B and MAPK signaling pathways

O=C(O[C@@H]1Cc2c(O)cc(O)cc2O[C@@H]1c1cc(O)c(O)c(O)c1)c1cc(O)c(O)c(O)c1 [EGCG, epigallocatechin gallate]
teratogenic or developmental toxicity (animal experiments): no teratogenic or developmental toxicity was observed
genotoxicity (mouse body fluid analyses): no genotoxic effects
expression of IL-6 and IL-6 mRNA [1]: reducing the expression of IL-6 and IL-6 mRNA
LPS-mediated pro-inflammatory gene expression [2]: may prevent LPS-mediated pro-inflammatory gene expression
